Read-outs that look alike come from different tables or passages of the source.
Experiments:
[1] = tested on: Salmonella typhimurium TA97a; test: Ames antimutagenicity assay (preincubation); settings: for inhibition at 50 µM / inhibition at 100 µM / inhibition at 250 µM / inhibition at 500 µM: Salmonella enterica, TYPHIMURIUM;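 as to all read-outs here: compound and mutagen preincubated together 30 min at 37 °C before adding bacteria, then plated on minimal glucose agar for 48 h and His+ revertant colonies counted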
Procedure: (§1) In the preincubation experiment, test compounds and mutagen, each having a volume of 0.1 mL of varying concentrations, were preincubated at 37°C for 30 min and then 0.1 mL of 1 × 10^7 CFU/mL density of the bacterial culture was added, followed by the addition of 2.5 mL of top agar at 45°C (containing 0.5% NaCl and 0.6% agar) supplemented with 0.5 mM histidine-biotin. […] The combined solutions were vortexed and poured onto minimal glucose plates (40% glucose solution and Vogel Bonner medium). The plates were incubated at 37°C for 48 h and the numbers of histidine-independent revertants colonies were scored.
(§2) Survival of the bacteria was routinely monitored for each experiment. Parallel controls were run with compounds alone at all concentrations to test the possible toxicity. The concentrations of the test samples for investigating the antimutagenicity were 50, 100, 200, and 500 μM. […] All the test samples and mutagens were dissolved in DMSO (final conc., 0.01%). […] Plates were set up in triplicate for each concentration and the entire experiment was repeated three times. Inhibition of mutagenicity was expressed as percentage decrease of reverse mutation and calculated as (1) Percent inhibition=[(a−b)/(a−c)]×100, where a = number of histidine revertants induced by mutagen, b = number of histidine revertants induced by mutagen in the presence of test compound, and c = number of revertants induced in negative control.

[2] = tested on: Salmonella typhimurium TA102
Procedure: as §1, §2

[3] = tested on: Salmonella typhimurium TA98
Procedure: as §1, §2

O=C1O[C@H]2[C@@H]3OC(=O)c4cc(O)c(O)c(O)c4-c4c(O)c(O)c5oc(=O)c6c(c(O)c(O)c7oc(=O)c4c5c76)-c4c(cc(O)c(O)c4O)C(=O)OC[C@H]3OC(O)[C@@H]2OC(=O)c2cc(O)c(O)c(O)c2-c2c1cc(O)c(O)c2O (mixture of isomers) [Punicalagin]
inhibition at 50 µM ([1]; read-out: % inhibition of mutagenicity, TA 97a, 50 μM + 2AF, S9): 15.7% | inhibition at 50 µM ([1]; read-out: % inhibition of mutagenicity, TA 97a, 50 μM + BP, S9): 15.1% | inhibition at 50 µM ([1]; read-out: % inhibition of mutagenicity, TA 97a, 50 μM + MMS, no S9): 10.2% | inhibition at 50 µM ([1]; read-out: % inhibition of mutagenicity, TA 97a, 50 μM + NaN3, no S9): 10.2% | inhibition at 100 µM ([1]; read-out: % inhibition of mutagenicity, TA 97a, 100 μM + 2AF, S9): 37.1% | inhibition at 100 µM ([1]; read-out: % inhibition of mutagenicity, TA 97a, 100 μM + BP, S9): 34.3% | inhibition at 100 µM ([1]; read-out: % inhibition of mutagenicity, TA 97a, 100 μM + MMS, no S9): 19.9% | inhibition at 100 µM ([1]; read-out: % inhibition of mutagenicity, TA 97a, 100 μM + NaN3, no S9): 34.2% | inhibition at 250 µM ([1]; read-out: % inhibition of mutagenicity, TA 97a, 250 μM + BP, S9): 53.5% | inhibition at 250 µM ([1]; read-out: % inhibition of mutagenicity, TA 97a, 250 μM + MMS, no S9): 42.4% | inhibition at 250 µM ([1]; read-out: % inhibition of mutagenicity, TA 97a, 250 μM + NaN3, no S9): 54.9% | inhibition at 500 µM ([1]; read-out: % inhibition of mutagenicity, TA 97a, 500 μM + 2AF, S9): 78.5% | inhibition at 500 µM ([1]; read-out: % inhibition of mutagenicity, TA 97a, 500 μM + BP, S9): 76.7% | inhibition at 500 µM ([1]; read-out: % inhibition of mutagenicity, TA 97a, 500 μM + MMS, no S9): 72% | inhibition at 500 µM ([1]; read-out: % inhibition of mutagenicity, TA 97a, 500 μM + NaN3, no S9): 74.4% | Number of His+ revertants colonies/plate ([1]; TA 97a, 50 μM + 2AF, S9): 304.7 ± 19.8 colonies/plate | Number of His+ revertants colonies/plate ([1]; TA 97a, 50 μM + BP, S9): 645.3 ± 28.7 colonies/plate | Number of His+ revertants colonies/plate ([1]; TA 97a, 50 μM + MMS, no S9): 418.3 ± 11.7 colonies/plate | Number of His+ revertants colonies/plate ([1]; TA 97a, 50 μM + NaN3, no S9): 244.3 ± 6.7 colonies/plate | Number of His+ revertants colonies/plate ([1]; TA 97a, 100 μM + 2AF, S9): 270.3 ± 10.1 colonies/plate | Number of His+ revertants colonies/plate ([1]; TA 97a, 100 μM + BP, S9): 538.3 ± 28.9 colonies/plate | Number of His+ revertants colonies/plate ([1]; TA 97a, 100 μM + MMS, no S9): 390.7 ± 10.2 colonies/plate | Number of His+ revertants colonies/plate ([1]; TA 97a, 100 μM + NaN3, no S9): 221.0 ± 7.1 colonies/plate | Number of His+ revertants colonies/plate ([1]; TA 97a, 250 μM + BP, S9): 431.0 ± 18.4 colonies/plate | Number of His+ revertants colonies/plate ([1]; TA 97a, 250 μM + MMS, no S9): 326.0 ± 7.8 colonies/plate | Number of His+ revertants colonies/plate ([1]; TA 97a, 250 μM + NaN3, no S9): 202.3 ± 8.7 colonies/plate | Number of His+ revertants colonies/plate ([1]; TA 97a, 500 μM + 2AF, S9): 220.0 ± 9.3 colonies/plate | Number of His+ revertants colonies/plate ([1]; TA 97a, 500 μM + BP, S9): 316.0 ± 17.6 colonies/plate | Number of His+ revertants colonies/plate ([1]; TA 97a, 500 μM + MMS, no S9): 251.0 ± 9.0 colonies/plate | % inhibition of mutagenicity ([1]; TA 97a, 500 μM + MMS, no S9, 500 µM): 72.1% | Number of His+ revertants colonies/plate ([1]; TA 97a, 500 μM + MMS, no S9, listed as PC): 251 colonies/plate | Number of His+ revertants colonies/plate ([1]; TA 97a, 500 μM + NaN3, no S9): 195.0 ± 10.8 colonies/plate | Number of His+ revertants colonies/plate ([2]; Salmonella typhimurium): 356.0 ± 10.4 colonies/plate | Number of His+ revertants colonies/plate ([2]; TA 102, 50 μM alone (negative control), 2AF tables): 320.0 ± 21.9 colonies/plate | Number of His+ revertants colonies/plate ([2]; TA 102, 50 μM alone (negative control), BP tables): 320.0±21.9 colonies/plate | Number of His+ revertants colonies/plate ([2]; TA 102, 50 μM alone (negative control), MMS tables): 292.0 ± 7.7 colonies/plate | Number of His+ revertants colonies/plate ([2]; TA 102, 50 μM alone (negative control), NaN3 tables): 306.7 ± 13.3 colonies/plate | Number of His+ revertants colonies/plate ([2]; TA 102, 100 μM alone (negative control), 2AF tables): 341.0 ± 18.3 colonies/plate | Number of His+ revertants colonies/plate ([2]; TA 102, 100 μM alone (negative control), BP tables): 341.0 ± 18.3 colonies/plate | Number of His+ revertants colonies/plate ([2]; TA 102, 100 μM alone (negative control), MMS tables): 278.0 ± 12.8 colonies/plate | Number of His+ revertants colonies/plate ([2]; TA 102, 100 μM alone (negative control), NaN3 tables): 275.3 ± 22.1 colonies/plate | Number of His+ revertants colonies/plate ([2]; TA 102, 250 μM alone (negative control), BP tables): 356.0 ± 10.4 colonies/plate | Number of His+ revertants colonies/plate ([2]; TA 102, 250 μM alone (negative control), MMS tables): 255.0 ± 13.2 colonies/plate | Number of His+ revertants colonies/plate ([2]; TA 102, 250 μM alone (negative control), NaN3 tables): 250.0 ± 22.9 colonies/plate | Number of His+ revertants colonies/plate ([2]; TA 102, 500 μM alone (negative control), 2AF tables): 358.0 ± 19.9 colonies/plate | Number of His+ revertants colonies/plate ([2]; TA 102, 500 μM alone (negative control), BP tables): 358.0 ± 19.9 colonies/plate | Number of His+ revertants colonies/plate ([2]; TA 102, 500 μM alone (negative control), MMS tables): 254.0 ± 14.3 colonies/plate | Number of His+ revertants colonies/plate ([2]; TA 102, 500 μM alone (negative control), NaN3 tables): 231.7 ± 24.8 colonies/plate | Number of His+ revertants colonies/plate ([3]; Salmonella typhimurium): 31.0 ± 1.7 colonies/plate | Number of His+ revertants colonies/plate ([3]; TA 98, 50 μM alone (negative control), 2AF tables): 40.7 ± 2.9 colonies/plate | Number of His+ revertants colonies/plate ([3]; TA 98, 50 μM alone (negative control), BP tables): 40.7 ± 2.9 colonies/plate | Number of His+ revertants colonies/plate ([3]; TA 98, 50 μM alone (negative control), MMS tables): 42.3 ± 1.8 colonies/plate | Number of His+ revertants colonies/plate ([3]; TA 98, 50 μM alone (negative control), NaN3 tables): 42.3 ± 1.8 colonies/plate | Number of His+ revertants colonies/plate ([3]; TA 98, 100 μM alone (negative control), 2AF tables): 36.3 ± 1.8 colonies/plate | Number of His+ revertants colonies/plate ([3]; TA 98, 100 μM alone (negative control), BP tables): 36.3 ± 1.8 colonies/plate | Number of His+ revertants colonies/plate ([3]; TA 98, 100 μM alone (negative control), MMS tables): 35.7 ± 1.8 colonies/plate | Number of His+ revertants colonies/plate ([3]; TA 98, 100 μM alone (negative control), NaN3 tables): 35.7 ± 1.8 colonies/plate | Number of His+ revertants colonies/plate ([3]; TA 98, 250 μM alone (negative control), BP tables): 31.0 ± 1.7 colonies/plate | Number of His+ revertants colonies/plate ([3]; TA 98, 250 μM alone (negative control), MMS tables): 30.0 ± 1.2 colonies/plate | Number of His+ revertants colonies/plate ([3]; TA 98, 250 μM alone (negative control), NaN3 tables): 30.0 ± 1.2 colonies/plate | Number of His+ revertants colonies/plate ([3]; TA 98, 500 μM alone (negative control), 2AF tables): 22.3 ± 1.8 colonies/plate | Number of His+ revertants colonies/plate ([3]; TA 98, 500 μM alone (negative control), BP tables): 22.3 ± 1.8 colonies/plate | Number of His+ revertants colonies/plate ([3]; TA 98, 500 μM alone (negative control), MMS tables): 27.3 ± 2.0 colonies/plate | Number of His+ revertants colonies/plate ([3]; TA 98, 500 μM alone (negative control), NaN3 tables): 27.3 ± 2.0 colonies/plate

— paper PMC4052943 (BioMed Research International, 2014)
